Test [1] has as its system Platelet. The test is described as follows: Antiplatelet activity against ADP-induced platelet aggregation in rabbit plasma at 100 nM for 120 mins by aggregometeric analysis. To be noted: Oryctolagus cuniculus. Format: functional.
The subject of test [2] is Rattus norvegicus. Briefly: Antithrombotic activity in Wistar rat model assessed as reduction of wet thrombus weight at 5 umol/kg after 15 mins. Format: functional.
The subject of test [3] is Rattus norvegicus. The test is described as follows: Antiischemic activity in Wistar rat myocardia assessed as protection against ischemic-reperfusion-induced edema between wavy muscle fibre and surrounding blood vessels at 20 mg/kg, ip administered 15 minutes prior to induction of ischemia followed by administered 1 hr post reperfusion by using hematoxylin-eosin stain by light microscopy analysis. Format: functional, organism-based. Further details: dose 20 mg/kg.

The subject of test [4] is Rattus norvegicus. The test is described as follows: Antiischemic activity in Wistar rat skeleton muscle assessed as protection against ischemic-reperfusion-induced cell necrosis at 20 mg/kg, ip administered 15 minutes prior to induction of ischemia followed by administered 1 hr post reperfusion by using hematoxylin-eosin staining by light microscopy analysis. Further details: dose 20 mg/kg. The format is functional, organism-based. As to conditions: Muscle tissue.

For test [5], the system named is Rattus norvegicus. Briefly: Antiischemic activity in Wistar rat skeleton muscle assessed as protection against ischemic-reperfusion-induced ragged red fibrils formation at 20 mg/kg, ip administered 15 minutes prior to induction of ischemia followed by administered 1 hr post reperfusion by using modified NADH stain by Light microscopy analysis. Format: functional, organism-based. Further details: dose 20 mg/kg. To be noted: Muscle tissue.

Test [6] has as its system Rattus norvegicus. Briefly: Antiischemic activity against Wistar rat ischemic-reperfusion model assessed decrease in lipid peroxidation at 20 mg/kg, ip administered 15 minutes prior to induction of ischemia followed by administered 1 hr post reperfusion. Format: functional, organism-based. Also noted: dose 20 mg/kg.
Test [7] deals with Rattus norvegicus. Briefly: Antiischemic activity against Wistar rat ischemic-reperfusion model assessed decrease in MDA level in plasma at 20 mg/kg, ip administered 15 minutes prior to induction of ischemia followed by administered 1 hr post reperfusion. The format is functional, organism-based. Further details: dose 20 mg/kg.
Test [8] deals with Rattus norvegicus. Briefly: Antiischemic activity in Wistar rat myocardia assessed as protection against ischemic-reperfusion-induced tightly woven network of collagen and mild edema at 20 mg/kg, ip administered 15 minutes prior to induction of ischemia followed by administered 1 hr post reperfusion by using hematoxylin-eosin stain by Light microscopy analysis. Format: functional, organism-based. Further details: dose 20 mg/kg.

The test system of test [9] is Rattus norvegicus. The test is described as follows: Antiischemic activity in Wistar rat myocardia assessed as protection against ischemic-reperfusion-induced pyknotic nuclei at 20 mg/kg, ip administered 15 minutes prior to induction of ischemia followed by administered 1 hr post reperfusion by using hematoxylin-eosin stain by light microscopy analysis. Further details: dose 20 mg/kg. The format is functional, organism-based.

In test [10] the test system is Rattus norvegicus. Briefly: Antiischemic activity in Wistar rat myocardia assessed as protection against ischemic-reperfusion-induced tightly woven network of collagen and mild edema between fibre at 20 mg/kg, ip administered 15 minutes prior to induction of ischemia followed by administered 1 hr post reperfusion by using modified NADH stain by light microscopy analysis. The format is functional, organism-based. Also noted: dose 20 mg/kg.

In test [11] the test system is Rattus norvegicus. The test is described as follows: Antiischemic activity in Wistar rat skeleton muscle assessed as protection against ischemic-reperfusion-induced interstitial edema at 20 mg/kg, ip administered 15 minutes prior to induction of ischemia followed by administered 1 hr post reperfusion by using Gomori trichrome staining by light microscopy analysis. The format is functional, organism-based. Further details: dose 20 mg/kg. As to conditions: Muscle tissue.

For test [12], the system named is Rattus norvegicus. Briefly: Antiischemic activity against Wistar rat ischemic-reperfusion model assessed decrease in SOD level in plasma at 20 mg/kg, ip administered 15 minutes prior to induction of ischemia followed by administered 1 hr post reperfusion. Format: functional, organism-based. Also noted: dose 20 mg/kg.
Test [13] concerns Rattus norvegicus. The test is described as follows: Antiischemic activity in Wistar rat skeleton muscle assessed as protection against ischemic-reperfusion-induced membrane ruptures with dissolution of myofibrils at 20 mg/kg, ip administered 15 minutes prior to induction of ischemia followed by administered 1 hr post reperfusion by using Gomori trichrome staining by light microscopy analysis. Further details: dose 20 mg/kg. Format: functional, organism-based. To be noted: Muscle tissue.

Test [14] has as its system Rattus norvegicus. The test is described as follows: Antiischemic activity in Wistar rat skeleton muscle assessed as protection against ischemic-reperfusion-induced neutrophil accumulation at 20 mg/kg, ip administered 15 minutes prior to induction of ischemia followed by administered 1 hr post reperfusion by using hematoxylin-eosin staining by light microscopy analysis. The format is functional, organism-based. Also noted: dose 20 mg/kg. As to conditions: Muscle tissue.

The test system of test [15] is Rattus norvegicus. Briefly: Antiischemic activity in Wistar rat myocardia assessed as protection against ischemic-reperfusion-induced tightly woven network of collagen and mild edema between fibre at 20 mg/kg, ip administered 15 minutes prior to induction of ischemia followed by administered 1 hr post reperfusion by using modified gomori trichome staining by light microscopy analysis. Also noted: dose 20 mg/kg. Format: functional, organism-based.

In test [16] the test system is Rattus norvegicus. Briefly: Antiischemic activity in Wistar rat myocardia assessed as protection against ischemic-reperfusion-induced relaxed collagen fibre sourrounding indivisual myocardial tract at 20 mg/kg, ip administered 15 minutes prior to induction of ischemia followed by administered 1 hr post reperfusion by using modified gomori trichome stain by light microscopy analysis. Format: functional, organism-based. Further details: dose 20 mg/kg.

For test [17], the system named is Platelet. Briefly: Antiplatelet activity against PAF-induced platelet aggregation in rabbit plasma at 100 nM for 120 mins by aggregometeric analysis. To be noted: Oryctolagus cuniculus. Format: functional.
Test [18] concerns Rattus norvegicus. The test is described as follows: Antiischemic activity in Wistar rat skeleton muscle assessed as protection against ischemic-reperfusion-induced irregular distribution of oxidative metabolism enzyme at 20 mg/kg, ip administered 15 minutes prior to induction of ischemia followed by administered 1 hr post reperfusion by using NADH staining by light microscopy analysis. Format: functional, organism-based. Further details: dose 20 mg/kg. To be noted: Muscle tissue.

Test [19] concerns Rattus norvegicus. The test is described as follows: Antiischemic activity in Wistar rat myocardia assessed as protection against ischemic-reperfusion-induced contraction band at 20 mg/kg, ip administered 15 minutes prior to induction of ischemia followed by administered 1 hr post reperfusion by using hematoxylin-eosin stain by light microscopy analysis. Format: functional, organism-based. Also noted: dose 20 mg/kg.

The test system of test [20] is Rattus norvegicus. The test is described as follows: Antiischemic activity against Wistar rat ischemic-reperfusion model assessed as wet/dry edema tissue ratio at 20 mg/kg, ip administered 15 minutes prior to induction of ischemia followed by administered 1 hr post reperfusion. Format: functional.
The test system of test [21] is Rattus norvegicus. Briefly: Antiischemic activity in Wistar rat skeleton muscle assessed as protection against ischemic-reperfusion-induced necrotic and swollen cells at 20 mg/kg, ip administered 15 minutes prior to induction of ischemia followed by administered 1 hr post reperfusion by using Gomori trichrome staining by light microscopy analysis. Format: functional, organism-based. Further details: dose 20 mg/kg. To be noted: Muscle tissue.

The test system of the next test is Aorta. Briefly: Antioxidant activity in rat thoracic aortic strips assessed as free radical scavenging activity by measuring reversal of acetylcholine-induced relaxation. Format: functional, tissue-based.
Test [22] deals with Rattus norvegicus. The test is described as follows: Antiischemic activity in Wistar rat skeleton muscle assessed as protection against ischemic-reperfusion-induced muscle edema at 20 mg/kg, ip administered 15 minutes prior to induction of ischemia followed by administered 1 hr post reperfusion by using hematoxylin-eosin staining by light microscopy analysis. Also noted: dose 20 mg/kg. As to conditions: Muscle tissue. Format: functional, organism-based.

The subject of test [23] is Rattus norvegicus. The test is described as follows: Antithrombotic activity in Wistar rat model assessed as reduction of dry thrombus weight at 5 umol/kg after 15 mins. Format: functional, organism-based.

Molecules are shown by their SMILES. The source made the active and inactive calls. The rule behind the calls is not given here. Residues, ends and D or L forms follow the SMILES beside them. *: point of attachment. X1 = CC1(C)CC(C(=O)*)CC(C)(C)N1[O]

Among the data in ChEMBL document CHEMBL2176945, “Novel TEMPO-PEG-RGDs conjugates remediate tissue damage induced by acute limb ischemia/reperfusion” (2012) are Activity, Wet thrombus weight and Ratio values, retold here.

`CC1(C)CC(C(=O)NCCOCCOCCOCCOCCOCCOCCOCCNC(=O)COCC(=O)N[C@@H](CCCNC(=N)N)C(=O)NCC(=O)N[C@@H](CC(=O)O)C(=O)N[C@@H](Cc2ccccc2)C(=O)O)CC(C)(C)N1[O]`: the outcome in the test on Platelet [1], in the test with Rattus norvegicus [3], with Rattus norvegicus [4], with Rattus norvegicus [5], in the test on Rattus norvegicus [6] and in the test with Rattus norvegicus [7] was Active. Also, the result with Rattus norvegicus [8], with Rattus norvegicus [9], with Rattus norvegicus [10], in the test with Rattus norvegicus [11], in the test with Rattus norvegicus [12] and with Rattus norvegicus [13] was Active. Further, the result with Rattus norvegicus [14], in the test with Rattus norvegicus [15], with Rattus norvegicus [16], in the test on Platelet [17], in the test with Rattus norvegicus [18] and in the test with Rattus norvegicus [19] was Active. Also, the outcome in the test on Rattus norvegicus [21], with Aorta and in the test on Rattus norvegicus [22] was Active. Also, the Wet thrombus weight in the test with Rattus norvegicus [2] turned out to be 20.7 mg. For the same compound, the Ratio with Rattus norvegicus [20] amounted to 3.45.

On to `CC(C)[C@H](NC(=O)[C@H](CC(=O)O)NC(=O)CNC(=O)[C@H](CCCNC(=N)N)NC(=O)C1CC(C)(C)N([O])C(C)(C)C1)C(=O)O` (X1-RGDV-OH), for which the result in the test on Platelet [1], with Platelet [17] and with Aorta was Active. The Activity with Rattus norvegicus [23] was 25.1 mg.

`CC(=O)Oc1ccccc1C(=O)O` [ASPIRIN]: the Activity in the test with Rattus norvegicus [2] was determined as 27.6 mg.

With `CC1(C)CC(C(=O)NCCOCCOCCOCCOCCOCCOCCOCCNC(=O)COCC(=O)N[C@@H](CCCNC(=N)N)C(=O)NCC(=O)N[C@@H](CC(=O)O)C(=O)N[C@@H](CO)C(=O)O)CC(C)(C)N1[O]`, the result in the test on Platelet [1], in the test on Platelet [17] and with Aorta was Active. Moreover, the Wet thrombus weight with Rattus norvegicus [2] is 23.6 mg.

As to `CC1(C)CC(C(=O)N[C@@H](CCCNC(=N)N)C(=O)NCC(=O)N[C@@H](CC(=O)O)C(=O)N[C@@H](Cc2ccccc2)C(=O)O)CC(C)(C)N1[O]` (X1-RGDF-OH), the result with Platelet [1], in the test on Platelet [17] and with Aorta was Active. Besides, in the test on Rattus norvegicus [23], the Activity amounted to 22.3 mg.

On to `CC(C)[C@H](NC(=O)[C@H](CC(=O)O)NC(=O)CNC(=O)[C@H](CCCNC(=N)N)NC(=O)COCC(=O)NCCOCCOCCOCCOCCOCCOCCOCCNC(=O)C1CC(C)(C)N([O])C(C)(C)C1)C(=O)O`, for which the result in the test on Platelet [1], with Platelet [17] and in the test with Aorta was Active. Also, the Wet thrombus weight in the test on Rattus norvegicus [2] turned out to be 24.7 mg.

Take `CC1(C)CC(C(=O)N[C@@H](CCCNC(=N)N)C(=O)NCC(=O)N[C@@H](CC(=O)O)C(=O)N[C@@H](CO)C(=O)O)CC(C)(C)N1[O]` (X1-RGDS-OH): the result with Platelet [1], in the test on Platelet [17] and with Aorta was Active. In addition, in the test on Rattus norvegicus [23], the Activity stood at 25.9 mg.

As to `CC1(C)CC(O)CC(C)(C)N1[O]` [TEMPOL], the Ratio in the test with Rattus norvegicus [20] (route intraperitoneal) came out at 4.49. In addition, the outcome with Aorta was Active.
